# Measurements reported in PMC5361737, “Potent and Selective KDM5 Inhibitor Stops Cellular Demethylation of H3K4me3 at Transcription Start Sites and Proliferation of MM1S Myeloma Cells” (Cell Chemical Biology, 2017).
# Legend:
# [1] = biological target: KDM3A (Homo sapiens, UniProt Q9Y4C1); test: 2-Oxoglutarate oxygenase assay panel, AlphaScreen assay
# [2] = system: GABA (non-selective); test: Cerep Express Panel, agonist radioligand; assay type: binding
# [3] = biological target: VPAC1 (VIP1) (h) (Homo sapiens, UniProt P32241); test: Cerep Express Panel, agonist radioligand; assay type: binding; details: read-out: % Inhibition of reference (10 µM)
# [4] = biological target: beta 2 (h) (Homo sapiens, UniProt P07550); test: Cerep Express Panel, agonist radioligand; assay type: binding; details: read-out: % Inhibition of reference (10 µM)
# [5] = biological target: T1, norepinephrine transporter (h) (Homo sapiens, UniProt P23975); test: Cerep Express Panel, antagonist radioligand; assay type: binding; details: read-out: % Inhibition of reference (10 µM)
# T1 construct: CEREP
# T1 sequence (P23975 whole entry): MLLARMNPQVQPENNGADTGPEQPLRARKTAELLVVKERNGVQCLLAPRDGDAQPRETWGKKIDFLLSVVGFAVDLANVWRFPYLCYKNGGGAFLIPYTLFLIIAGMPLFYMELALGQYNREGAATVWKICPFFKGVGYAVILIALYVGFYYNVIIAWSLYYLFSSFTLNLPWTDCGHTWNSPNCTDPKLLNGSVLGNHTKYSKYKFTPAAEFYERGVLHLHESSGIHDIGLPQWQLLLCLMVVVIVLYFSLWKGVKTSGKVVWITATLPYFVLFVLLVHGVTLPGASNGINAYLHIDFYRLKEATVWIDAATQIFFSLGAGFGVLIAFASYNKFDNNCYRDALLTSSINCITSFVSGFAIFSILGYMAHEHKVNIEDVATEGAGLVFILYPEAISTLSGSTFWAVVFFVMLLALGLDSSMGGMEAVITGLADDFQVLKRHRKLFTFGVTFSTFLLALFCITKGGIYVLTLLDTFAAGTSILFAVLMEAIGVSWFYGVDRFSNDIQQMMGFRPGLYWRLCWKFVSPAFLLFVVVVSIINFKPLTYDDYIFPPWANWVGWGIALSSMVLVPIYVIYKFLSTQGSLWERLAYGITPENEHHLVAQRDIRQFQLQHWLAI
# VPAC1 (VIP1) (h), sequence (P32241 31-457): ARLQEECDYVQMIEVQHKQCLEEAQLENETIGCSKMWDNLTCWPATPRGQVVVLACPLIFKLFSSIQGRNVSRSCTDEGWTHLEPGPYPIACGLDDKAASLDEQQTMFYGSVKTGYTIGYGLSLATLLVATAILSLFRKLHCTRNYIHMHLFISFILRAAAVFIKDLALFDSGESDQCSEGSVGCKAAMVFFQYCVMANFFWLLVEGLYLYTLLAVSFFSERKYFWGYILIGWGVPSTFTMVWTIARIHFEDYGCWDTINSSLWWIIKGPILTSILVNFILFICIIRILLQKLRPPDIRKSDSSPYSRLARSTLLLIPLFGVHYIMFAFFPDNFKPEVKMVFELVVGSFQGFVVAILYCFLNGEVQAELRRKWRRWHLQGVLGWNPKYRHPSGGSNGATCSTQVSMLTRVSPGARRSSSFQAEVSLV
# KDM3A, sequence (Q9Y4C1 whole entry): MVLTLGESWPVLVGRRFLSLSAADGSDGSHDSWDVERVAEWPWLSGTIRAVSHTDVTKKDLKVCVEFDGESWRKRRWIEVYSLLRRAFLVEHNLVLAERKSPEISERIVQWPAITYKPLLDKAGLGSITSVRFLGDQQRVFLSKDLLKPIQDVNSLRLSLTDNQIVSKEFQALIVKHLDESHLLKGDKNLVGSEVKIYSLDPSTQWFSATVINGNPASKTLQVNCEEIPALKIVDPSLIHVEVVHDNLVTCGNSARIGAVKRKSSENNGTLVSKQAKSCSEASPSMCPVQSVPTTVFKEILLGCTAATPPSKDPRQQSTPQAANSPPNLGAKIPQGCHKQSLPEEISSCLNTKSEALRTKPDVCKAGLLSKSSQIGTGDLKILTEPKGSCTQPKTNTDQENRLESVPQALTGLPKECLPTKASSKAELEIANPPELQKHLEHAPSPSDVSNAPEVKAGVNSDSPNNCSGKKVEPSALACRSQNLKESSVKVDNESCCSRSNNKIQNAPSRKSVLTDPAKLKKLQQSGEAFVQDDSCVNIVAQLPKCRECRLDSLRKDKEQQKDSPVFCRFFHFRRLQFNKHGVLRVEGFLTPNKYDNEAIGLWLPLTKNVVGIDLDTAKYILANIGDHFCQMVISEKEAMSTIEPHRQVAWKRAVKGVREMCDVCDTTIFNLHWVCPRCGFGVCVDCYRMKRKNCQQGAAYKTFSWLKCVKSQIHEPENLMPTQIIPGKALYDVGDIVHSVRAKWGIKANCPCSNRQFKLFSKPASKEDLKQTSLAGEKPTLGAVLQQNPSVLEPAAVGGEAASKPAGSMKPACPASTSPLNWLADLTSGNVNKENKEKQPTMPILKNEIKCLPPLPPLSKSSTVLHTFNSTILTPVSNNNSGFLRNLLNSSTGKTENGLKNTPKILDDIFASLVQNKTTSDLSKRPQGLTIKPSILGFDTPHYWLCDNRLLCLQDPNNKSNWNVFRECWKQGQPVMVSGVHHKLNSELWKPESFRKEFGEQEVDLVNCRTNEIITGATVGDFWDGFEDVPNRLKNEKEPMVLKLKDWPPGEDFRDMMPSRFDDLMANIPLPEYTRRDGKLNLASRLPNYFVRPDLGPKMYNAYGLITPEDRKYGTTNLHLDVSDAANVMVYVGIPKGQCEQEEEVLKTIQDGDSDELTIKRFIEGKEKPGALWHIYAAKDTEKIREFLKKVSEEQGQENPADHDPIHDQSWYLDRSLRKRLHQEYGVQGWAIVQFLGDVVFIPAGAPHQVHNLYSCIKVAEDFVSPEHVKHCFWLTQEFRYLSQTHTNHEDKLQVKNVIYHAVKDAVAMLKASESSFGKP
# beta 2 (h), sequence (P07550 whole entry): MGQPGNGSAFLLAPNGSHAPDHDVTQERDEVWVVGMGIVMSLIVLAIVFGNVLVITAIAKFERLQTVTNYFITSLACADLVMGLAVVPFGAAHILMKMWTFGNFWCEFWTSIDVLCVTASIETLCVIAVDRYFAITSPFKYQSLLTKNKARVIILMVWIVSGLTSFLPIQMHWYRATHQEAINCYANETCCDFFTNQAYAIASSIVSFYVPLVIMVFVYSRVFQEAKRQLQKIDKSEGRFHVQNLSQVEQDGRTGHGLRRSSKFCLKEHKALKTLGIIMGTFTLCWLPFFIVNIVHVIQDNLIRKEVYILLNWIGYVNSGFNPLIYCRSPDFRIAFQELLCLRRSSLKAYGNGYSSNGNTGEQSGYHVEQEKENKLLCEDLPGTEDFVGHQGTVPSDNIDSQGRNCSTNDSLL
smiles,measurement,setting,value
CCN(CCN(C)C)C(=O)CNCc1cc(C(N)=O)ccn1 [KDOAM-25],IC50,[1],31.6 µM
same,% Inhibition of reference (10 µM),[2],-4%
same,inhibition at 10 µM,[3],-12%
same,inhibition at 10 µM,[4],5%
same,inhibition at 10 µM,[5],-6%
